Laboratory results taken from US10792373B2, “Drug delivery polymers and uses thereof” (priority 2016, dated 2020).

Tests used:
[1] = system: Eμ-Myc p19Arf−/− lymphoma cells; assay: RNAi signature assay (GFP-tagged shRNAs, flow cytometry); type: cell-based, murine; details: drug dosed to kill 80-90% of cells at 48 h; GFP positivity at 72 h
Protocol: RNAi signatures were performed as described previously^2-4. Briefly, Eμ-Myc p19^Arf−/− lymphoma cells were infected at about 30% with GFP-tagged shRNAs. The cells were then treated with drug to kill 80-90% of cells as judged by propidium iodide exclusion via flow cytometry at 48 h. At 72 h, GFP positivity was assessed via flow cytometry. Constrained linear regression was performed in Stata using least-squares fit with individual drug treatments as the predictor variables and the combination signatures as the response variables. The linear regression was constrained such that the sum of the predictor variables had to equal one and none could be negative.
(§1) Eμ-Myc p19Arf−/− lymphoma cells were infected at about 30% with GFP-tagged shRNAs. The cells were then treated with drug to kill 80-90% of cells as judged by propidium iodide exclusion via flow cytometry at 48 h. At 72 h GFP positivity was assessed via flow cytometry. Using the RNAi signature approach, the free drug, prodrug, single-drug-conjugated BASPs, and multi-drug conjugated BASPs illustrated in FIGS. 9A-9C were characterized. […] Next, the RNAi signatures for each of the free drugs and their corresponding prodrug monomers and BASPs were plotted (FIG. 20E) using principal component analysis (PCA). PCA is a means of representing the variance in a multi-dimensional dataset in fewer dimensions. […] One hypothesis that may explain the observed difference between the cisplatin and oxaliplatin prodrug mechanisms is related to the ligand lability of these species. Inside the cell, where the concentration of chloride ions is much lower than in the extracellular milieu (2 to 30 mM for the former compared to ˜100 mM for the latter), the weakly bound chloride ligands of free cisplatin are replaced with aquo ligands. This diaquo species induces cytotoxic inter- or intra-strand DNA cross-links. […] Additionally, utilizing a CisPt-DNA adduct specific antibody, the genomic DNA isolated from murine lymphoma cells after 8 h of drug treatment was analyzed. […]

[2] = molecular target: T1, Top1 (Mus musculus, UniProt Q04750); assay: GFP competition assay with validated Top1 shRNA; type: cell-based, murine
T1 construct: Eμ-Myc p19Arf−/− lymphoma cells were infected at about 30% with GFP-tagged shRNAs; endogenous in cells; host or cells: Eμ-Myc p19Arf-/- murine lymphoma cells
T1 sequence (Q04750 1-767): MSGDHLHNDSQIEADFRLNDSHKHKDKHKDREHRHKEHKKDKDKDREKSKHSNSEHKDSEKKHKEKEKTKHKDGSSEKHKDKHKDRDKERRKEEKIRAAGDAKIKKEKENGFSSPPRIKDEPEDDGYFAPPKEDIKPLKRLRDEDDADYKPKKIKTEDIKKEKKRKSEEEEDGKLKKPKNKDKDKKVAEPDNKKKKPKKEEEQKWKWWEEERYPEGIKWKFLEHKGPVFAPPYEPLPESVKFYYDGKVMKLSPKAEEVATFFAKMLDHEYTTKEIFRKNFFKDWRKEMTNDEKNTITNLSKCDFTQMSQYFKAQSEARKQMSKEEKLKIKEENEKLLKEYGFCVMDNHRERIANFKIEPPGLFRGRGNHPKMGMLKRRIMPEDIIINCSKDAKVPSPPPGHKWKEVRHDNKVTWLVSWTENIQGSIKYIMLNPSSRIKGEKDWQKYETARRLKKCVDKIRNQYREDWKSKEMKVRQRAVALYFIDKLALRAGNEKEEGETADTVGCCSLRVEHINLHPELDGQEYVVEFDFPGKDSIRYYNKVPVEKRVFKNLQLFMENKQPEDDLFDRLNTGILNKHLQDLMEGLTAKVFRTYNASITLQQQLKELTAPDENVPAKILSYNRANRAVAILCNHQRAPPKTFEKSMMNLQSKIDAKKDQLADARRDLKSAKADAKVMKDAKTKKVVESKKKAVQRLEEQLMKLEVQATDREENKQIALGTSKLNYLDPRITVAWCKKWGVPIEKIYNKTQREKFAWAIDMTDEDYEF
Protocol: (§2) Eμ-Myc p19Arf−/− lymphoma cells were infected at about 30% with GFP-tagged shRNAs. The cells were then treated with drug to kill 80-90% of cells as judged by propidium iodide exclusion via flow cytometry at 48 h. At 72 h GFP positivity was assessed via flow cytometry. Using the RNAi signature approach, the free drug, prodrug, single-drug-conjugated BASPs, and multi-drug conjugated BASPs illustrated in FIGS. 9A-9C were characterized. […] Next, the RNAi signatures for each of the free drugs and their corresponding prodrug monomers and BASPs were plotted (FIG. 20E) using principal component analysis (PCA). PCA is a means of representing the variance in a multi-dimensional dataset in fewer dimensions. […] Inside the cell, where the concentration of chloride ions is much lower than in the extracellular milieu (2 to 30 mM for the former compared to ˜100 mM for the latter), the weakly bound chloride ligands of free cisplatin are replaced with aquo ligands. This diaquo species induces cytotoxic inter- or intra-strand DNA cross-links.

[3] = molecular target: T2, Top2A (Mus musculus, UniProt Q01320); assay: GFP competition assay with validated Top2A shRNA; type: cell-based, murine
T2 construct: Eμ-Myc p19Arf−/− lymphoma cells were infected at about 30% with GFP-tagged shRNAs; endogenous in cells; host or cells: Eμ-Myc p19Arf-/- murine lymphoma cells
Protocol: as §2

[4] = system: genomic DNA isolated from murine lymphoma cells; assay: Cisplatin-DNA adduct detection with a CisPt-DNA adduct specific antibody; type: cell-based; details: after 8 h of drug treatment
Protocol: as §1

T2 sequence (Q01320 whole entry): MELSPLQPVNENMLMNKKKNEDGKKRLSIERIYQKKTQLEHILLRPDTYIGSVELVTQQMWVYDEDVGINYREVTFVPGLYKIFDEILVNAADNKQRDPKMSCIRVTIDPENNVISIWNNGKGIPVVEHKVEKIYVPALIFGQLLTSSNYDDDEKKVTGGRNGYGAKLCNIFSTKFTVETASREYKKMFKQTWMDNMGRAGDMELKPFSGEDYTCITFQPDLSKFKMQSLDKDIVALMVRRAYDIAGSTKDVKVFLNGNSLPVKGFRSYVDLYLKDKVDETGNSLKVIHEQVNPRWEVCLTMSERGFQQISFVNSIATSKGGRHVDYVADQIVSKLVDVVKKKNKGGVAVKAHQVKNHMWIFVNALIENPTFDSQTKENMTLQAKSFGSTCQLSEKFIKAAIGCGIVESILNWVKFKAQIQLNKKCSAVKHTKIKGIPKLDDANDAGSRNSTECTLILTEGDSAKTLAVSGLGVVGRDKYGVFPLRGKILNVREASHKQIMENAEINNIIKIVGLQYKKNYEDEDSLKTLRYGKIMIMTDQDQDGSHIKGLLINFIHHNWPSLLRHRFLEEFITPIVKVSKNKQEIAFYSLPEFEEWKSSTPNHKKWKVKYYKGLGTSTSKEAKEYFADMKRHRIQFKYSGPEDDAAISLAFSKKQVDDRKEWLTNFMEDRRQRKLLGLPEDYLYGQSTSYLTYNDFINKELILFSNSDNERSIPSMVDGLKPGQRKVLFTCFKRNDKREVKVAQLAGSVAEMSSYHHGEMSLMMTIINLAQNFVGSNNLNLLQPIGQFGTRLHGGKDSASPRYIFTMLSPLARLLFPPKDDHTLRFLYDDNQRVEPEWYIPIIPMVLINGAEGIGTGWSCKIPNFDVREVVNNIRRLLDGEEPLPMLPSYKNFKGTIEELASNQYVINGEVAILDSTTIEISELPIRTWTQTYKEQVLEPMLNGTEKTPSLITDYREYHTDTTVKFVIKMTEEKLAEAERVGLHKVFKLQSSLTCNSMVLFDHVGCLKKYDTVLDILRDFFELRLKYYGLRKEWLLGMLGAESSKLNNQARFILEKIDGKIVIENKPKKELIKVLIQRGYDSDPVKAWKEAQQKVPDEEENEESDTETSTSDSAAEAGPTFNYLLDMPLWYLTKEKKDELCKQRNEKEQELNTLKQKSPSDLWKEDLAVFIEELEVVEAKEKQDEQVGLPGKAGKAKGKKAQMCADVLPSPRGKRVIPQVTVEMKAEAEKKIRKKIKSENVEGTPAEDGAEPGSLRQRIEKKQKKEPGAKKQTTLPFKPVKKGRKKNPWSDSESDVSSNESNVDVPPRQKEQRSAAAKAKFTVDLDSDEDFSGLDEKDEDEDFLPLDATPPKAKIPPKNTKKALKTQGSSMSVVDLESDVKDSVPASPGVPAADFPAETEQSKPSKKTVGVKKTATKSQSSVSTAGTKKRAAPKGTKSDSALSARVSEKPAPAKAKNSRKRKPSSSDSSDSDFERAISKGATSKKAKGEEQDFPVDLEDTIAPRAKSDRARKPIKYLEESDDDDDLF

| SMILES | RNAi signature classification (mechanism of action) [1] | response of cells with knockdown of Top1 [2] | response of cells harboring the Top2A shRNA [3] | Cisplatin-DNA adducts [4] |
| --- | --- | --- | --- | --- |
| CC[C@@]1(O)C(=O)OCc2c1cc1n(c2=O)Cc2cc3ccccc3nc2-1 [CPT, camptothecin] | Topoisomerase I (Top1) poisons | resistance | sensitivity |  |
| N.N.[Cl][Pt][Cl] [CisPt, cisplatin] |  |  |  | detected |
| COc1cccc2c1C(=O)c1c(O)c3c(c(O)c1C2=O)C[C@@](O)(C(=O)CO)C[C@@H]3O[C@H]1C[C@H](N)[C@H](O)[C@H](C)O1 [DOX, doxorubicin] | Topoisomerase II (Top2) poison | sensitivity | resistant |  |
| O=C1[O][Pt]2([NH][C@@H]3CCCC[C@H]3[NH]2)[O]C1=O [OxPt, oxaliplatin] | transcription/translation inhibitors |  |  |  |
